{"source": "patent US4774230A", "about": "“Glucuronic acid derivatives of opioid antagonists” (Ivax Laboratories, Inc., priority 1988, dated 1988)", "key": {"[1]": {"system": "opioid-dependant animals (central nervous system)", "assay": "Rapid Quantitative In Vivo Assay for Narcotic Antagonist (skin tail temperature rise, CNS withdrawal sign)", "conditions": "FIG. 2; injection of 1000 μg/kg", "excerpt": "The Rapid Quantitative In Vivo Assay for Narcotic Antagonist of Katovich et al. (Substance and Alcohol Actions/Misuse, vol 5: 87095, 1984) was used. This assay is based on the extreme sensitivity of opioid-dependant animals to narcotic antagonists. Injection of these animals with a narcotic antagonist produces severe central nervous system withdrawal signs. One of these signs is an abrupt rise in the skin temperature of the tail."}, "intestinal transit": {"system": "intestinal transit", "assay": "charcoal meal assay (gastrointestinal motility), alleviation of morphine-induced hypomotility", "format": "in vivo, mice", "conditions": "for effect on intestinal transit in the absence of morphine: no morphine, groups 4 and 6; for protection of the intestine against the depressant effect of morphine / percentage of intestine traveled compared with group 1 (no morphine): with morphine; for protection of the intestine against the depressant effect of morphine: groups 5 and 7; for percentage of intestine traveled compared with group 1 (no morphine): groups 5 and 7 vs group 1", "method": "Summary of the Results of the Charcoal Meal Assay^a\n(Gastrointestial Motility) in Mice Given Nalmefene HCl\nand Nalmefene-β-D-Glucuronide\n^b The first vehicle or drug listed under Treatment was given 30\nminutes before the second vehicle or drug listed. The results were\ndetermined 30 min later. All treatments are p.o. and given in a volume of\n0.3 ml. Doses were 10 mg/kg for morphine, 15 mg/kg or 2.9 ×"}, "[2]": {"assay": "absorption and distribution of ^14 C labelled nalmefene glucuronide after oral administration", "format": "in vivo, rats", "excerpt": "Therefore the glucuronide of an opioid antagonist provides a means of preventing narcotic-induced intestinal hypomotility without interfering with central nervous system effects of narcotics, such as analgesia."}, "[3]": {"assay": "analysis of blood, urine and feces after oral nalmefene (free nalmefene versus nalmefene glucuronide)", "format": "in vivo, rats", "conditions": "oral administration", "excerpt": "Such a high degree of biotransformation is common for this type of drug."}, "constipation": {"system": "constipation", "conditions": "patients not exposed to an exogenous opioid; Kreek et al., Lancet 1983; cited from earlier work"}}, "note": "Counter-ions that a name gives are not always drawn."}
{"compound": "C=C1CC[C@@]2(O)[C@H]3Cc4ccc(O[C@@H]5O[C@H](C(=O)O)[C@@H](O)[C@H](O)[C@H]5O)c5c4[C@@]2(CCN3CC2CC2)[C@H]1O5", "note": "[nalmefene glucuronide, nalmefene-3β-D-glucuronide]", "values": [{"measurement": "effect on skin tail temperature", "setting": "[1]", "result": "no effect"}, {"measurement": "Percent Meal Traveled ± S.E.M.", "setting": "intestinal transit; Group 4: Saline + Nalmefene Glucuronide, 15 mg/kg or 2.9 × 10^-6 M/kg p.o., N = 8, no significant difference vs Saline + Saline", "result": "66 ± 3", "unit": "%"}, {"measurement": "Percent Meal Traveled ± S.E.M.", "setting": "intestinal transit; Group 5: Morphine (10 mg/kg p.o., 30 min before) + Nalmefene Glucuronide 15 mg/kg or 2.9 × 10^-6 M/kg p.o., N = 5, no difference vs Saline + Saline, p < 0.05 vs Morphine + Saline", "result": "58 ± 12", "unit": "%"}, {"measurement": "effect on intestinal transit in the absence of morphine", "setting": "intestinal transit", "result": "neither nalmefene (group 6) nor nalmefene glucuronide (group 4) had any significant effect"}, {"measurement": "effectiveness against morphine-induced intestinal hypomotility compared with nalmefene", "setting": "intestinal transit; vs nalmefene", "result": "as effective as nalmefene"}, {"measurement": "protection of the intestine against the depressant effect of morphine", "setting": "intestinal transit", "result": "protected the intestine against the depressant effect of morphine"}, {"measurement": "percentage of intestine traveled compared with group 1 (no morphine)", "setting": "intestinal transit", "result": "not significantly less than in the group (group 1) where no morphine was present"}, {"measurement": "form of the drug in the cecum", "setting": "[2]; 2 hours after oral dosing", "result": "almost exclusively free nalmefene"}, {"measurement": "part of the dose present in the small intestine still as nalmefene glucuronide", "setting": "[2]; 2 hours after oral dosing", "result": "about 85%"}, {"measurement": "part of the dose which had reached the cecum", "setting": "[2]; 2 hours after oral dosing", "result": "2-3%"}, {"measurement": "radioactivity in plasma", "setting": "[2]; 2 hours after oral dosing", "result": "No radioactivity could be detected in plasma"}, {"measurement": "absorption following oral administration", "setting": "[2]; ^14 C label, oral doses as high as 40 mg/kg", "result": "not absorbed to any measurable extent"}]}
{"compound": "C=C1CC[C@@]2(O)[C@H]3Cc4ccc(O)c5c4[C@@]2(CCN3CC2CC2)[C@H]1O5", "note": "[nalmefene, 6-methylene-6-desoxy-N-cyclopropylmethyl-14-hydroxydihydronormorphine]", "values": [{"measurement": "biotransformation by \"first-pass\" metabolism", "setting": "[3]", "result": "almost totally biotransformed"}, {"measurement": "effect on intestinal transit in the absence of morphine", "setting": "intestinal transit", "result": "neither nalmefene (group 6) nor nalmefene glucuronide (group 4) had any significant effect"}, {"measurement": "protection of the intestine against the depressant effect of morphine", "setting": "intestinal transit", "result": "protected the intestine against the depressant effect of morphine"}, {"measurement": "percentage of intestine traveled compared with group 1 (no morphine)", "setting": "intestinal transit", "result": "not significantly less than in the group (group 1) where no morphine was present"}]}
{"compound": "C=C1CC[C@@]2(O)[C@H]3Cc4ccc(O)c5c4[C@@]2(CCN3CC2CC2)[C@H]1O5", "note": "[Nalmefene HCl]", "values": [{"measurement": "Percent Meal Traveled ± S.E.M.", "setting": "intestinal transit; Group 6: Saline + Nalmefene HCl, 2.9 × 10^-6 M/kg p.o., N = 8", "result": "63 ± 2", "unit": "%"}, {"measurement": "Percent Meal Traveled ± S.E.M.", "setting": "intestinal transit; Group 7: Morphine (10 mg/kg p.o., 30 min before) + Nalmefene HCl 2.9 × 10^-6 M/kg p.o., N = 5, no difference vs Saline + Saline, p < 0.05 vs Morphine + Saline", "result": "66 ± 14", "unit": "%"}]}
{"compound": "CN1CC[C@]23c4c5ccc(O)c4O[C@H]2[C@@H](O)C=C[C@H]3[C@H]1C5", "note": "[Morphine]", "values": [{"measurement": "Percent Meal Traveled ± S.E.M.", "setting": "intestinal transit; Group 2: Saline + Morphine, morphine 10 mg/kg p.o. given 30 min after saline, N = 8, significantly different (p < 0.05) from Saline + Saline controls", "result": "28 ± 2", "unit": "%"}, {"measurement": "Percent Meal Traveled ± S.E.M.", "setting": "intestinal transit; Group 3: Morphine + Saline, morphine 10 mg/kg p.o. given 30 min before saline, N = 8, p < 0.05 vs Saline + Saline, no difference vs Saline + Morphine", "result": "31 ± 3", "unit": "%"}, {"measurement": "reduction of the percentage of the intestine traveled", "setting": "intestinal transit; morphine, groups 2 and 3", "result": "reduced the percentage of the intestine traveled by more than half"}]}
{"compound": "C=CCN1CC[C@]23c4c5ccc(O)c4O[C@H]2C(=O)CC[C@@]3(O)[C@H]1C5", "note": "[naloxone]", "values": [{"measurement": "relief of constipation", "setting": "constipation", "result": "relieves constipation"}]}
